Source: patent publication US20230126447A1, “OCULAR DRUG DEPOT FOR COMPLEMENT-MEDIATED DISORDERS” (priority 2020, published 2023)
“Also recorded” adds a separate entry of the source. Where two headings read alike, the source gives them in different places.

Assay: Ocular tissue and plasma pharmacokinetics, 15 mg/kg single and BID oral, Dutch Belted rabbits (Example 3/5)
Assay type: in vivo
Settings: for MRTlast / Tlast / MRT inf / half-life: Choroid-RPE; for concentration at 1 h / concentration at 6 h / concentration at 168 h / concentration at 24 h / concentration at 96 h / concentration at 240 h / concentration at 0 h / MRT inf / half-life: Dutch Belted, rabbit
Protocol: Study design including group designation and dose levels are outlined in Table 4. […] Fifteen Dutch Belted and 5 New Zealand White rabbits were used as un-dosed controls. […] The dose volume was 5 mL/kg/dose for all groups. Safety was assessed with toxicological and ophthalmic examinations including slit lamp biomicroscopy, indirect ophthalmoscopy, rebound tonometry, and ultrasonic corneal pachymetry.
Analyst® software (Version 1.6.2) was used to capture the LC-MS/MS data and integrate the peak areas. Calibration standards and QCs were prepared in a blank solution of 75%:25% acetonitrile:water (v:v), ranging from 10 ng/mL to 10,000 ng/mL. Matrix matched standard and QC samples were prepared by mixing 2 μL of standard or QC sample above with 18 μL of appropriate ocular tissue or plasma. The final calibration standards ranged from 1 ng/mL to 1000 ng/mL. All plasma, retina, choroid-RPE, optic nerve, and vitreous humor samples were analyzed in a single run. Iris-ciliary body samples were analyzed in two runs due to a need for sample dilution. […] Dilution QCs were prepared at 5000 ng/mL where appropriate. Two sets of standards were used to bracket the analytical run at the beginning and end of the run. Three sets of QCs were included the analytical runs. All concentrations in ocular matrices are reported as ng/g based on the assumed density of 1 g/mL.
1, 6, 24, 96, 168, and 240 hours post-dose on Day 15, with the eyes collected at the same time as blood sampling. A single blood sample was taken from Groups 4 and 5 at sacrifice. Plasma, vitreous humor (VH), retina, choroid-retina pigmented epithelium (Choroid-RPE), optic nerve (ON), and iris-ciliary body (I-CB) were analyzed by LC-MS/MS to quantify test article concentrations. The lower limit of quantitation (LLOQ) in plasma and vitreous humor was 1.0 ng/mL. The LLOQ was 6.0 ng/g in retina, Choroid-RPE, and I-CB and the optic nerve LLOQ was 15 ng/g, assuming tissue density of 1 g/mL where relevant.
Study design including group designation and dose levels are outlined in Table 18.

[1] = DB rabbit, 15 mg/kg BID, Day 15
[2] = DB rabbit, 15 mg/kg single dose, Day 1
[3] = DB rabbit, 15 mg/kg BID oral, Day 15, 24 h
[4] = DB rabbit, 15 mg/kg BID oral, Day 15, 96 h
[5] = DB rabbit, 15 mg/kg BID oral, Day 15, 168 h
[6] = DB rabbit, 15 mg/kg BID oral, Day 15, 240 h
[7] = DB rabbit, 15 mg/kg single oral dose, Day 1, 0 h
[8] = DB rabbit, 15 mg/kg single oral dose, Day 1, 0 h, 15 mg/kg
[9] = DB rabbit, 15 mg/kg single oral dose, Day 1, 24 h
[10] = DB rabbit, 15 mg/kg single oral dose, Day 1, 96 h
[11] = DB rabbit, 15 mg/kg single oral dose, Day 1, 96 h, 15 mg/kg
[12] = DB rabbit, 15 mg/kg single oral dose, Day 1, 168 h
[13] = DB rabbit, 15 mg/kg single oral dose, Day 1, 240 h
[14] = DB rabbits, Day 1, 15 mg/kg single dose, 0 hr
[15] = choroid-RPE, po, 15 mg/kg, DB rabbit, 15 mg/kg BID, Day 15
[16] = choroid-RPE, po, 15 mg/kg, DB rabbit, 15 mg/kg single dose, Day 1

Structure (SMILES): CC(=O)c1nn(CC(=O)N2C[C@H](F)C[C@H]2C(=O)Nc2cccc(Br)n2)c2ccc(-c3cnc(C)nc3)cc12 [Compound 1, (2S,4R)-1-(2-(3-Acetyl-5-(2-methylpyrimidin-5-yl)-1H-indazol-1-yl)acetyl)-N-(6-bromopyridin-2-yl)-4-fluoropyrrolidine-2-carboxamide]
- MRTlast [1]: 68.5 h
- Tlast [1]: 240 h
- MRTlast [2]: 49.7 h
- Tlast [2]: 240 h
- Vitreous humor concentration after 24 hours post-dose (non-detectable) (DB rabbit, 15 mg/kg BID for 14 days): < 1.0 ng/mL
- Mean Aqueous Humor concentration (DB rabbit, 15 mg/kg BID oral, Day 15, 0 h): BLQ^a
- Mean Aqueous Humor concentration (DB rabbit, 15 mg/kg BID oral, Day 15, 6 h): BLQ^a
- Mean Aqueous Humor concentration [3]: BLQ^a
- Mean Vitreous Humor concentration [3]: BLQ^a
- Mean plasma concentration (DB rabbit, 15 mg/kg BID oral, Day 15, 24 h, 15 mg/kg): 5.6 ng/mL
- Mean Aqueous Humor concentration [4]: BLQ^a
- Mean Vitreous Humor concentration [4]: BLQ^a
- Mean Aqueous Humor concentration [5]: BLQ^a
- Mean Vitreous Humor concentration [5]: BLQ^a
- Mean plasma concentration [5]: BLQ^a
- Mean Aqueous Humor concentration [6]: BLQ^a
- Mean Vitreous Humor concentration [6]: BLQ^a
- Mean plasma concentration [6]: BLQ^a
- Mean Aqueous Humor concentration [7]: BLQ^a
- Mean Vitreous Humor concentration [7]: BLQ^a
- Mean plasma concentration [7]: BLQ^a
- Mean Choroid-RPE concentration [8]: BLQ^a and BLQ
- Mean Iris-Ciliary Body concentration [8]: BLQ^a and BLQ
- Mean retina concentration [8]: BLQa and BLQ^a and BLQ
- Mean retina concentration (DB rabbit, 15 mg/kg single oral dose, Day 1, 6 h, 15 mg/kg): 30 ng/g
- Mean Aqueous Humor concentration [9]: BLQ^a
- Mean Vitreous Humor concentration [9]: BLQ^a
- Mean retina concentration (DB rabbit, 15 mg/kg single oral dose, Day 1, 24 h, 15 mg/kg): 25 ng/g
- Mean Aqueous Humor concentration [10]: BLQ^a
- Mean Vitreous Humor concentration [10]: BLQ^a
- Mean plasma concentration [11]: no drug was detectable; also recorded: BLQ^a
- Mean retina concentration [11]: BLQ^a and BLQ
- Mean Vitreous Humor concentration [12]: BLQ^a
- Mean plasma concentration [12]: BLQ^a
- Mean retina concentration (DB rabbit, 15 mg/kg single oral dose, Day 1, 168 h, 15 mg/kg): BLQ^a and BLQ
- Mean Aqueous Humor concentration [13]: BLQ^a
- Mean Vitreous Humor concentration [13]: BLQ^a
- Mean plasma concentration [13]: BLQ^a
- Mean retina concentration (DB rabbit, 15 mg/kg single oral dose, Day 1, 240 h, 15 mg/kg): BLQ^a and BLQ
- Accumulation of the drug in Choroid-RPE after repeat dosing (DB rabbit, Day 1 to Day 15): ~6 fold
- Mean Choroid-RPE concentration [14]: BLQ
- Mean retina concentration [14]: BLQ
- Mean retina concentration (DB rabbits, Day 1, 15 mg/kg single dose, 96 hr): BLQ
- Mean retina concentration (DB rabbits, Day 1, 15 mg/kg single dose, 168 hr): BLQ
- Mean retina concentration (DB rabbits, Day 1, 15 mg/kg single dose, 240 hr): BLQ
- concentration at 1 h (aqueous humor, po, 15 mg/kg, DB rabbit, 15 mg/kg BID oral, Day 15, 1 h, read-out: Mean Aqueous Humor concentration): 10.6 ng/mL
- concentration at 1 h (aqueous humor, po, 15 mg/kg, DB rabbit, 15 mg/kg single oral dose, Day 1, 1 h, read-out: Mean Aqueous Humor concentration): 3.8 ng/mL
- concentration at 6 h (aqueous humor, po, 15 mg/kg, DB rabbit, 15 mg/kg single oral dose, Day 1, 6 h, read-out: Mean Aqueous Humor concentration): 45.3 ng/mL
- concentration at 168 h (aqueous humor, po, 15 mg/kg, DB rabbit, 15 mg/kg single oral dose, Day 1, 168 h, read-out: Mean Aqueous Humor concentration): 11.1 ng/mL
- concentration at 1 h (choroid-RPE, oral, 15 mg/kg, DB rabbits, Day 1, 15 mg/kg single dose, 1 hr, read-out: Mean Choroid-RPE Concentration): 917 ng/g
- concentration at 6 h (choroid-RPE, oral, 15 mg/kg, DB rabbits, Day 1, 15 mg/kg single dose, 6 hr, read-out: Mean Choroid-RPE Concentration): 866 ng/g
- concentration at 24 h (choroid-RPE, oral, 15 mg/kg, DB rabbits, Day 1, 15 mg/kg single dose, 24 hr, read-out: Mean Choroid-RPE Concentration): 311 ng/g
- concentration at 96 h (choroid-RPE, oral, 15 mg/kg, DB rabbits, Day 1, 15 mg/kg single dose, 96 hr, read-out: Mean Choroid-RPE Concentration): 77.5 ng/g
- concentration at 168 h (choroid-RPE, oral, 15 mg/kg, DB rabbits, Day 1, 15 mg/kg single dose, 168 hr, read-out: Mean Choroid-RPE Concentration): 56.3 ng/g
- concentration at 240 h (choroid-RPE, oral, 15 mg/kg, DB rabbits, Day 1, 15 mg/kg single dose, 240 hr, read-out: Mean Choroid-RPE Concentration): 28.1 ng/g
- concentration at 0 h (choroid-RPE, oral, 15 mg/kg, DB rabbits, Day 15, 15 mg/kg BID, 0 hr, read-out: Mean Choroid-RPE Concentration): 2460 ng/g
- concentration at 1 h (choroid-RPE, oral, 15 mg/kg, DB rabbits, Day 15, 15 mg/kg BID, 1 hr, read-out: Mean Choroid-RPE Concentration): 4870 ng/g
- concentration at 6 h (choroid-RPE, oral, 15 mg/kg, DB rabbits, Day 15, 15 mg/kg BID, 6 hr, read-out: Mean Choroid-RPE Concentration): 3200 ng/g
- concentration at 24 h (choroid-RPE, oral, 15 mg/kg, DB rabbits, Day 15, 15 mg/kg BID, 24 hr, read-out: Mean Choroid-RPE Concentration): 1960 ng/g
- concentration at 96 h (choroid-RPE, oral, 15 mg/kg, DB rabbits, Day 15, 15 mg/kg BID, 96 hr, read-out: Mean Choroid-RPE Concentration): 866 ng/g
- concentration at 168 h (choroid-RPE, oral, 15 mg/kg, DB rabbits, Day 15, 15 mg/kg BID, 168 hr, read-out: Mean Choroid-RPE Concentration): 485 ng/g
- concentration at 240 h (choroid-RPE, oral, 15 mg/kg, DB rabbits, Day 15, 15 mg/kg BID, 240 hr, read-out: Mean Choroid-RPE Concentration): 340 ng/g
- MRT inf [15]: 125 h
- half-life [15]: 107 h
- MRT inf [16]: 81.8 h
- half-life [16]: 98.4 h
- concentration at 0 h (choroid-RPE, po, 15 mg/kg, DB rabbit, 15 mg/kg BID oral, Day 15, 0 h, read-out: Mean Choroid-RPE concentration): 2460 ng/g
- concentration at 1 h (choroid-RPE, po, 15 mg/kg, DB rabbit, 15 mg/kg BID oral, Day 15, 1 h, read-out: Mean Choroid-RPE concentration): 4870 ng/g
- concentration at 6 h (choroid-RPE, po, 15 mg/kg, DB rabbit, 15 mg/kg BID oral, Day 15, 6 h, read-out: Mean Choroid-RPE concentration): 3200 ng/g
- concentration at 24 h (choroid-RPE, po, 15 mg/kg, DB rabbit, 15 mg/kg BID oral, Day 15, 24 h, read-out: Mean Choroid-RPE concentration): 1960 ng/g
- concentration at 96 h (choroid-RPE, po, 15 mg/kg, DB rabbit, 15 mg/kg BID oral, Day 15, 96 h, read-out: Mean Choroid-RPE concentration): 866 ng/g
- concentration at 168 h (choroid-RPE, po, 15 mg/kg, DB rabbit, 15 mg/kg BID oral, Day 15, 168 h, read-out: Mean Choroid-RPE concentration): 485 ng/g
- concentration at 240 h (choroid-RPE, po, 15 mg/kg, DB rabbit, 15 mg/kg BID oral, Day 15, 240 h, read-out: Mean Choroid-RPE concentration): 340 ng/g
- concentration at 1 h (choroid-RPE, po, 15 mg/kg, DB rabbit, 15 mg/kg single oral dose, Day 1, 1 h, read-out: Mean Choroid-RPE concentration): 917 ng/g
- concentration at 6 h (choroid-RPE, po, 15 mg/kg, DB rabbit, 15 mg/kg single oral dose, Day 1, 6 h, read-out: Mean Choroid-RPE concentration): 866 ng/g
- concentration at 24 h (choroid-RPE, po, 15 mg/kg, DB rabbit, 15 mg/kg single oral dose, Day 1, 24 h, read-out: Mean Choroid-RPE concentration): 311 ng/g
- concentration at 96 h (choroid-RPE, po, 15 mg/kg, DB rabbit, 15 mg/kg single oral dose, Day 1, 96 h, read-out: Mean Choroid-RPE concentration): 77.5 ng/g
- concentration at 168 h (choroid-RPE, po, 15 mg/kg, DB rabbit, 15 mg/kg single oral dose, Day 1, 168 h, read-out: Mean Choroid-RPE concentration): 56.3 ng/g
- concentration at 240 h (choroid-RPE, po, 15 mg/kg, DB rabbit, 15 mg/kg single oral dose, Day 1, 240 h, read-out: Mean Choroid-RPE concentration): 28.1 ng/g
